Assay results from BindingDB's records for doi:10.1016/j.bmc.2021.116291 (Fudan University School of Pharmacy, 2021).

Biological target: Glucagon-like peptide 1 receptor (Homo sapiens, UniProt P43220)
Assay: Binding affinity to GLP1R (unknown origin) assessed as dissociation rate constant by surface plasmon resonance analysis

Glucagon-like peptide 1 receptor, sequence (P43220 whole entry): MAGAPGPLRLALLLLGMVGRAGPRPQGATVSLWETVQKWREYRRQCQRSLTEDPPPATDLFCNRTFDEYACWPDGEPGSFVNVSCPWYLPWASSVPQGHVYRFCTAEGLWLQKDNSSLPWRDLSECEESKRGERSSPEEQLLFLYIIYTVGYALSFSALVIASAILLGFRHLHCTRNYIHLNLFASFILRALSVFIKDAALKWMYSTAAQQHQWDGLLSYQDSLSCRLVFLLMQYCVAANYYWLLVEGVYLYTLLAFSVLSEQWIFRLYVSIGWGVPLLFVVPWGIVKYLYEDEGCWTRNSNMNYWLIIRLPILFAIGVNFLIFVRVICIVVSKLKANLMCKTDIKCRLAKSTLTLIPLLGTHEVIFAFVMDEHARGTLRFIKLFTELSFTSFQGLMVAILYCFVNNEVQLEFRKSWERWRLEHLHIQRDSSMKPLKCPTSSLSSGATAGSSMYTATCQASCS

CCCCCCCCCCCC(=O)N[C@@H](CCC(=O)NCCCC[C@H](NC(=O)CC[C@H](NC(=O)CCCCCCCCCCC)C(=O)O)C(=O)NCCOCCOCC(=O)O)C(=O)O and CCCCCCCCCCCC(=O)N[C@@H](CCC(=O)NCCCC[C@H](NC(=O)CC[C@H](NC(=O)CCCCCCCCCCC)C(=O)O)C(=O)NCCOCCOCC(=O)NCCOCCOCC(=O)O)C(=O)O are within 1.5-fold of each other in koff: 0.0065 s⁻¹ for the first, 0.00857 s⁻¹ for the second.

For CCCCCCCCCCCC(=O)N[C@@H](CCC(=O)NCCCC[C@H](NC(=O)CC[C@H](NC(=O)CCCCCCCCCCC)C(=O)O)C(=O)NCCOCCOCC(=O)NCCOCCOCC(=O)NCCOCCOCC(=O)O)C(=O)O, the koff was 0.0237 s⁻¹.
